Measurements reported in ChEMBL document CHEMBL1138146, “Analysis of anti-PDE3 activity of 2-morpholinochromone derivatives reveals multiple mechanisms of anti-platelet activity” (Bioorg Med Chem Lett, 2006).
Active and inactive are the calls of the source. No cut-off for these calls is given here.

molecular target: Phosphodiesterase 3 (Homo sapiens) (UniProt Q14432+Q13370); assay: Inhibition of PDE3 at 6.25 uM; format: protein assay

inhibition [%] | SMILES
46 | Cc1c(OCc2cccnc2)ccc2c(=O)cc(N3CCOCC3)oc12

species: Homo sapiens; assay: Inhibition of PAR4AP induced platelet aggregation at 25 uM; format: functional

SMILES | Activity
Cc1c(OCc2ccccc2)ccc2c(=O)cc(N3CCOCC3)oc12 | Active

molecular target: cGMP-inhibited 3',5'-cyclic phosphodiesterase 3A (Homo sapiens) (UniProt Q14432); assay: Inhibition of PDE3A at 50 uM
Sequence (Q14432 whole entry): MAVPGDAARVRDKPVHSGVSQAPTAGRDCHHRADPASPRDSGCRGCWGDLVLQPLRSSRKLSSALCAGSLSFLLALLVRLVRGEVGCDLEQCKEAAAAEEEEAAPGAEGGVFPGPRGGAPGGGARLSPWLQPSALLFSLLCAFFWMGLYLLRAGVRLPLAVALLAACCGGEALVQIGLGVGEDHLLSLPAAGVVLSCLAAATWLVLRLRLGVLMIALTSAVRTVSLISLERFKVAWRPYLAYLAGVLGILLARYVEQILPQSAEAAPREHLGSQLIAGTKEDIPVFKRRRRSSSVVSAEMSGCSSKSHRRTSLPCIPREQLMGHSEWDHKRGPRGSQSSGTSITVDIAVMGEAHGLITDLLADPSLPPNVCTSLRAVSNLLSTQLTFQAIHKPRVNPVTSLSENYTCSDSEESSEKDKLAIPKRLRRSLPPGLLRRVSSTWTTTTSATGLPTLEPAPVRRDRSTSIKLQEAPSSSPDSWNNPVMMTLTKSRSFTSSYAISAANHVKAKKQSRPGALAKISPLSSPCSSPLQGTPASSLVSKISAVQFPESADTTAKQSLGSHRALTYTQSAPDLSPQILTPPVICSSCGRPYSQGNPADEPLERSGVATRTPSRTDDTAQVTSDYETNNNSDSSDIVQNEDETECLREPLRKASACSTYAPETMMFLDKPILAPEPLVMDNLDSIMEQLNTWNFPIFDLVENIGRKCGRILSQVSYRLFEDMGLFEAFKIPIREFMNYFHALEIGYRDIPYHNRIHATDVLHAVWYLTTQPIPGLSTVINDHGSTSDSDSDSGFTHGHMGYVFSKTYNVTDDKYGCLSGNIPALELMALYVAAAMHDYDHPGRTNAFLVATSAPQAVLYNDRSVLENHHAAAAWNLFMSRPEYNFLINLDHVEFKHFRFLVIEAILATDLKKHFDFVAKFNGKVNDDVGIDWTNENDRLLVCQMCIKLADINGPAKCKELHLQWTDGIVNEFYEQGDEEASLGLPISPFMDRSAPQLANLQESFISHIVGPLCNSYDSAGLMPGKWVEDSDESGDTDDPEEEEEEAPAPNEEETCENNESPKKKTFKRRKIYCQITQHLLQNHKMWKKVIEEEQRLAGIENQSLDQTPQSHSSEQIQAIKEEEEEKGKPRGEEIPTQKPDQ

SMILES | inhibition [%]
O=c1cc(N2CCOCC2)oc2c(CCc3ccccc3)cccc12 | 28
O=c1cc(N2CCOCC2)oc2cc(OCc3ccccc3)ccc12 | 49
O=c1cc(N2CCOCC2)oc2cc(-c3ccccc3)ccc12 | 50
O=c1cc(N2CCOCC2)oc2c(-c3ccccc3)cccc12 | 35
Cc1c(-c2ccccc2)ccc2c(=O)cc(N3CCOCC3)oc12 | 83
Cc1c(C#Cc2ccccc2)ccc2c(=O)cc(N3CCOCC3)oc12 | 44
O=c1cc(N2CCOCC2)oc2cc(Oc3ccccc3)ccc12 | 43
COc1cc(-c2ccc(Cl)cc2)c2oc(N3CCOCC3)cc(=O)c2c1 | 63
O=c1cc(N2CCOCC2)oc2cc(C#Cc3ccccc3)ccc12 | 70
O=c1cc(N2CCOCC2)oc2c(OCc3ccccc3)cccc12 | -7
O=c1cc(N2CCOCC2)oc2c(C#Cc3ccccc3)cccc12 | 60
Cc1c(OCCN2CCN(C)CC2)ccc2c(=O)cc(N3CCOCC3)oc12 | -10

More lines, now with the values ahead:

inhibition [%] | SMILES
78 | Cc1c(Oc2ccccc2)ccc2c(=O)cc(N3CCOCC3)oc12
86 | Cc1c(OCc2ccccc2)ccc2c(=O)cc(N3CCOCC3)oc12
68 | Cc1c(OCc2cccnc2)ccc2c(=O)cc(N3CCOCC3)oc12
5 | O=c1cc(N2CCOCC2)oc2c(OCc3cccnc3)cccc12
19 | O=c1cc(N2CCOCC2)oc2cc(OCc3cccnc3)ccc12
